Literature values, collected in US20130122119A1, “PHYLLANTHUS AMARUS COMPOSITIONS AND METHOD OF EXTRACTING SAME” (NATREON, INC., priority 2011, published 2013).

What was measured:
[1] = test system: TNF-α release; conditions: read-out: IC50 of TNF-α release inhibition
[2] = test system: hepatitis B surface antigen (HBsAg) secretion; conditions: non-cytotoxic concentration of 200 μg/ml
[3] = geraniin isolated from Phyllanthus sellowianus
[4] = test system: mouse skin tumors; conditions: week 20, treatment prior to okadaic acid
[5] = test system: hepatitis B e-antigen (HBeAg) secretion; conditions: non-cytotoxic concentration of 200 μg/ml

| Compound | IC50 [1] | inhibition of HBsAg secretion [2] | analgesic potency at the ID50 level (micromol/kg) relative to aspirin and acetaminophen [3] | average numbers of tumor per mouse ([4]; 3.8 without treatment) | percentage of tumor-bearing mice ([4]; 80.0% without treatment) | inhibition of HBeAg secretion [5] |
| --- | --- | --- | --- | --- | --- | --- |
| O=C(O[C@@H]1O[C@@H]2COC(=O)c3cc(O)c(O)c(O)c3-c3c(cc(O)c(O)c3O)C(=O)O[C@H]([C@H]1O)[C@@H]2O)c1cc(O)c(O)c(O)c1 [Corilagin, beta-1-O-galloyl-3,6-(R)-hexahydroxydiphenoyl-D-glucose] | 76 µM | – | – | – | – | – |
| (−)-epigallocatechin gallate | 26 µM | – | – | – | – | – |
| O=C1OC2C3COC(=O)c4cc(O)c(O)c(O)c4-c4c(cc(O)c(O)c4O)C(=O)OC2C(OC(=O)c2cc(O)c(O)c4c2C2C1=CC(=O)C(O)(O4)C2(O)O)C(OC(=O)c1cc(O)c(O)c(O)c1)O3 [Geraniin, beta-D-Glucopyranose, cyclic 2-7:4-5-(3,6-dihydro-2,9,10,11,11-pentahydroxy-3-oxo-2,6-methano-2H-1-benzoxocin-5,7-dicarboxylate) cyclic 3,6-(4,4′,5,5′,6,6′-hexahydroxy(1,1′-biphenyl)-2,2′-dicarboxylate) 1-(3,4,5-trihydroxybenzoate)] | 43 µM | more than 85.8% | about six- to seven-fold more potent | 1.1 | 40.0% | > 63.7% |
